Measured values reported in patent publication US6770020B2 (priority 2001, dated 2004).

Experiments:
[1] = tested on: human glioblastoma cells (TB 10); assay: ICP-MS Gd uptake by glioblastoma cell cultures exposed to Gd-DTPA; settings: for cellular Gd concentration: 10 mg/ml Gd-DTPA
[2] = tested on: human glioblastoma cells (TB 10); assay: ICP-MS Gd release/retention after Gd-DTPA wash-out; settings: 10 mg/ml 72 hours
[3] = LD50 in rats; format: in vivo; settings: 70 kg human, assuming a similar LD50 in man
[4] = tested on: human glioblastoma cells (TB 10); assay: MEPHISTO x-ray spectromicroscopy, Gd in nucleus vs. cytoplasm; format: cell-based; settings: 10 mg/ml
Procedure: 1) For spectromicroscopy experiments, two series of cell cultures from different passages were prepared, in which 5×10^4 cells/cm^2 were plated in 35 mm plastic Petri dishes, each containing 4 to 5 gold-plated stainless steel substrates (5 mm diameter). The Gd exposure concentration was 10 mg/ml and the exposure times were 0 to 72 hours. At the end of the exposure periods, all dishes were carefully washed three times with phosphate buffered saline (PBS) to remove all unbound Gd-DTPA, fixed in 4% paraformaldheyde in PBS for 20 minutes, and then washed in Milii Q water. The samples were then air-dried at room temperature and etched by exposure to UV light from a low-pressure mercury lamp in the presence of ozone. UV/O3 etching selectively removes carbon and nitrogen from the cells without architectural distortion, thereby preserving the micro localization of all other elements.^(18,19) In the present study, etching was employed to reveal the local (i.e., nuclear) concentration of Gd which would otherwise not be detectable with x-ray absorption spectroscopy. The cell cultures were etched for 116 hours, at a distance of 5 mm from the UV lamp.
Microchemical analysis of the etched cell cultures was performed with the custom-built MEPHISTO (Microscope á Emission de PHotoélectrons par Illumination Synchrotronique de Type Onduleur) X-ray photoelectron emission microscope (X-PEEM), which uses an electron optics system (SpectroMicroTech, Orlando, Fla., USA) to form a magnified image of the photoelectrons emitted by a specimen under soft x-ray illumination. The image magnification is continuously variable up to 8000x, and the optimum lateral resolution is 20 nm^(15). The image pixel intensity (corresponding to total photoelectron yield, per unit area, per unit time) is recorded as a function of photon energy. […] The position and line-shape of spectral features provide element identification and chemical state information. Spectra can be acquired simultaneously from regions selected on the real time image of the sample surface, and the probed depth is on the order of 100 Å. For this work, the MEPHISTO X-PEEM was mounted on the HERMON beamline of the University of Wisconsin-Madison Synchrotron Radiation Center (Stoughton, Wis.).
MEPHISTO micrographs acquired at a specific photon energy were processed in Adobe Photoshop 5.0 software for Macintosh to enhance the contrast and add a scale bar. […]
A comparison of ICP-MS and MEPHISTO data, determines the calibration of the MEPHISTO analysis, and therefore quantitative information on the Gd concentration at the microscopic level. […] These factors were derived from the matching of MEPHISTO data from whole cells to the ICP-MS cell-bulk data, so that they quantitatively overlap. […]

O=C([O-])CN(CCN(CC(=O)[O-])CC(=O)O)CCN(CC(=O)[O-])CC(=O)O.[Gd+3] [Gd-DTPA, gadolinium diethylene triamine pentaacetic acid]
cellular Gd concentration ([1]; 120-hour exposure (maximum)): 600 µg/mL | cellular Gd concentration ([1]; after 24 hours): more than 250 μg/ml | cellular Gd concentration vs. exposure time ([1]; 10 mg/ml, up to 120 hours, FIG. 1): increases with the exposure time | concentration of uptaken Gd vs. exposure concentration ([1]; 1 to 25 mg/ml Gd-DTPA, 72 hours, FIG. 3): increases with the exposure concentration | maximum cellular concentration relative to the 250 μg/ml recommended for GdNCT ([1]; 120-hour exposure): 2.4 times | immediate loss of Gd from the cell bodies after wash-out ([2]; FIG. 4): about 80% | intracellular retained Gd concentration ([2]; then two to four hours in physiological solution): 140 µg/mL | amount injected for a 50% chance of killing [3]: more than 850 g | Ratio: Gd nucleus/Gd cytoplasm ([4]; exposure time 6 hrs): 1.6 | Ratio: Gd nucleus/Gd cytoplasm ([4]; exposure time 24 hrs): 2.1 | Ratio: Gd nucleus/Gd cytoplasm ([4]; exposure time 48 hrs): 1.0 | Ratio: Gd nucleus/Gd cytoplasm ([4]; exposure time 72 hrs): 1.3
